# Target: T1, Estrogen receptor α (ER) (Homo sapiens, UniProt P03372, Y537S)
# T1 construct: gene ESR1; HA-tagged ER mutant, doxycycline-inducible in MCF7
# T1 sequence (P03372 1-595 Y537S): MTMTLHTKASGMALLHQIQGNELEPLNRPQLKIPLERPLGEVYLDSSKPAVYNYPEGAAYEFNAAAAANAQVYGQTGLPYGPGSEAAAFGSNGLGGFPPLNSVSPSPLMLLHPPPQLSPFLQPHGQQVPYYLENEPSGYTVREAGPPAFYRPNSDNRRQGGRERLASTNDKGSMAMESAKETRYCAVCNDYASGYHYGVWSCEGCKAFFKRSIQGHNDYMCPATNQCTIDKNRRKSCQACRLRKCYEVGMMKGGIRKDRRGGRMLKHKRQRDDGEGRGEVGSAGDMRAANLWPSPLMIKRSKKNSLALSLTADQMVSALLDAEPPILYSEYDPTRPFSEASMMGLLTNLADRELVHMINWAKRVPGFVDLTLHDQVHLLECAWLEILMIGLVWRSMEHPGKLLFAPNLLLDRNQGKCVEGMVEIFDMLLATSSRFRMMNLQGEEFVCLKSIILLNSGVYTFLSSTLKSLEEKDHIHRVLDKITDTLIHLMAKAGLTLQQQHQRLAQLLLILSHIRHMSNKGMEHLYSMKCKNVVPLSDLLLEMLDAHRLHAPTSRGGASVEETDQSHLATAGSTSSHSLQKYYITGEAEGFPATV
# Test: degradation of HA-tagged ER-Y537S by western blot in MCF7 cells ([…])
# Type: cell-based
structure (smiles),measurement,value
"Oc1ccc2c3c(cnc2c1)-c1ccc(C(F)(F)F)cc1O[C@@H]3c1ccc(OCCN2CC(CF)C2)cc1 [IML, imlunestrant]",degradation of HA-tagged ER-Y537S by western blot in MCF7 cells (100 nM),mutant-ER protein degradation was superior with imlunestrant treatment versus fulvestrant

# — publication PMC12226049, “Imlunestrant a next-generation oral SERD overcomes ESR1 mutant resistance in estrogen receptor–positive breast cancer” (JCI Insight, 2025)
